From patent publication US20090181898A1, “ABUSE-RESISTANT A[…]” (SHIRE LLC, priority 2002, published 2009)

Test system: anesthetized dog
Test: Cardiovascular effects following intravenous injection in the anesthetized dog

d-amphetamine
MAP % Change (iv 0.202 mg/kg, Time 25): 31%
MAP mean arterial pressure (iv 0.202 mg/kg, Time 25): 110 mmHg
SAP % Change (iv 0.202 mg/kg, Time 25): 34%
SAP systolic arterial pressure (iv 0.202 mg/kg, Time 25): 148 mmHg
DAP % Change (iv 0.202 mg/kg, Time 30): 20%
LVP % Change (iv 0.202 mg/kg, Time 30): 30%
MAP % Change (iv 0.202 mg/kg, Time 30): 23%
MAP mean arterial pressure (iv 0.202 mg/kg, Time 30): 103 mmHg
SAP % Change (iv 0.202 mg/kg, Time 30): 26%
SAP systolic arterial pressure (iv 0.202 mg/kg, Time 30): 140 mmHg
DAP % Change (iv 0.404 mg/kg, Time 0): 0%
LVP % Change (iv 0.404 mg/kg, Time 0): 0%
MAP % Change (iv 0.404 mg/kg, Time 0): 0%
MAP mean arterial pressure (iv 0.404 mg/kg, Time 0): 101 mmHg
SAP % Change (iv 0.404 mg/kg, Time 0): 0%
SAP systolic arterial pressure (iv 0.404 mg/kg, Time 0): 139 mmHg
DAP % Change (iv 0.404 mg/kg, Time 5): 88%
LVP % Change (iv 0.404 mg/kg, Time 5): 79%
MAP % Change (iv 0.404 mg/kg, Time 5): 85%
MAP mean arterial pressure (iv 0.404 mg/kg, Time 5): 187 mmHg
SAP % Change (iv 0.404 mg/kg, Time 5): 73%
SAP systolic arterial pressure (iv 0.404 mg/kg, Time 5): 240 mmHg
DAP % Change (iv 0.404 mg/kg, Time 15): 44%
LVP % Change (iv 0.404 mg/kg, Time 15): 43%
MAP % Change (iv 0.404 mg/kg, Time 15): 43%
MAP mean arterial pressure (iv 0.404 mg/kg, Time 15): 145 mmHg
SAP % Change (iv 0.404 mg/kg, Time 15): 39%
SAP systolic arterial pressure (iv 0.404 mg/kg, Time 15): 193 mmHg
DAP % Change (iv 0.404 mg/kg, Time 25): 17%
LVP % Change (iv 0.404 mg/kg, Time 25): 26%
MAP % Change (iv 0.404 mg/kg, Time 25): 20%
MAP mean arterial pressure (iv 0.404 mg/kg, Time 25): 122 mmHg
SAP % Change (iv 0.404 mg/kg, Time 25): 19%
SAP systolic arterial pressure (iv 0.404 mg/kg, Time 25): 166 mmHg
DAP % Change (iv 0.404 mg/kg, Time 30): 11%
LVP % Change (iv 0.404 mg/kg, Time 30): 22%
MAP % Change (iv 0.404 mg/kg, Time 30): 16%
MAP mean arterial pressure (iv 0.404 mg/kg, Time 30): 117 mmHg
SAP % Change (iv 0.404 mg/kg, Time 30): 16%
SAP systolic arterial pressure (iv 0.404 mg/kg, Time 30): 160 mmHg
DAP % Change (iv 2.02 mg/kg, Time 0): 0%
LVP % Change (iv 2.02 mg/kg, Time 0): 0%
MAP % Change (iv 2.02 mg/kg, Time 0): 0%
MAP mean arterial pressure (iv 2.02 mg/kg, Time 0): 115 mmHg
SAP % Change (iv 2.02 mg/kg, Time 0): 0%
SAP systolic arterial pressure (iv 2.02 mg/kg, Time 0): 158 mmHg
DAP % Change (iv 2.02 mg/kg, Time 5): 48%
LVP % Change (iv 2.02 mg/kg, Time 5): 40%
MAP % Change (iv 2.02 mg/kg, Time 5): 47%
MAP mean arterial pressure (iv 2.02 mg/kg, Time 5): 169 mmHg
SAP % Change (iv 2.02 mg/kg, Time 5): 44%
SAP systolic arterial pressure (iv 2.02 mg/kg, Time 5): 228 mmHg
DAP % Change (iv 2.02 mg/kg, Time 15): 23%
LVP % Change (iv 2.02 mg/kg, Time 15): 24%
MAP % Change (iv 2.02 mg/kg, Time 15): 23%
MAP mean arterial pressure (iv 2.02 mg/kg, Time 15): 142 mmHg
SAP % Change (iv 2.02 mg/kg, Time 15): 24%
SAP systolic arterial pressure (iv 2.02 mg/kg, Time 15): 196 mmHg
DAP % Change (iv 2.02 mg/kg, Time 25): 17%
LVP % Change (iv 2.02 mg/kg, Time 25): 19%
MAP % Change (iv 2.02 mg/kg, Time 25): 17%
MAP mean arterial pressure (iv 2.02 mg/kg, Time 25): 135 mmHg
SAP % Change (iv 2.02 mg/kg, Time 25): 20%
SAP systolic arterial pressure (iv 2.02 mg/kg, Time 25): 189 mmHg
DAP % Change (iv 2.02 mg/kg, Time 30): 13%
LVP % Change (iv 2.02 mg/kg, Time 30): 16%
MAP % Change (iv 2.02 mg/kg, Time 30): 12%
MAP mean arterial pressure (iv 2.02 mg/kg, Time 30): 129 mmHg
SAP % Change (iv 2.02 mg/kg, Time 30): 16%
SAP systolic arterial pressure (iv 2.02 mg/kg, Time 30): 183 mmHg
